Laboratory results reported in patent US12006328B2, “Thieno[2,3-d]pyrimidin-4-one derivatives as NMDAR modulators and uses related thereto” (Emory University, priority 2014, dated 2024).

How the values were obtained:
Assay type in all cases: cell-based
[1] = target: GluN2C-containing NMDA receptors (Homo sapiens, UniProt Q14957); assay: Two-electrode voltage-clamp recordings from Xenopus laevis oocytes, GluN2C; conditions: for I10 μM/ICONTROL (mean ± SEM, %) Glu N2C: 10 μM test compound with glutamate 100 μM and glycine 30 μM, Tables 1-5; for I10 μM/ICONTROL (mean ± SEM, %) Glu N2C / maximal potentiation Glu N2C: percent of response without compound; for EC50 / maximal potentiation Glu N2C: Table 1; for EC50: glutamate 100 μM, glycine 30 μM, Hill fit, read-out: EC50 Glu N2C; for maximal potentiation Glu N2C: in brackets after EC50
Chain of GluN2C-containing NMDA receptors (Q14957 20-1233, other chains not shown): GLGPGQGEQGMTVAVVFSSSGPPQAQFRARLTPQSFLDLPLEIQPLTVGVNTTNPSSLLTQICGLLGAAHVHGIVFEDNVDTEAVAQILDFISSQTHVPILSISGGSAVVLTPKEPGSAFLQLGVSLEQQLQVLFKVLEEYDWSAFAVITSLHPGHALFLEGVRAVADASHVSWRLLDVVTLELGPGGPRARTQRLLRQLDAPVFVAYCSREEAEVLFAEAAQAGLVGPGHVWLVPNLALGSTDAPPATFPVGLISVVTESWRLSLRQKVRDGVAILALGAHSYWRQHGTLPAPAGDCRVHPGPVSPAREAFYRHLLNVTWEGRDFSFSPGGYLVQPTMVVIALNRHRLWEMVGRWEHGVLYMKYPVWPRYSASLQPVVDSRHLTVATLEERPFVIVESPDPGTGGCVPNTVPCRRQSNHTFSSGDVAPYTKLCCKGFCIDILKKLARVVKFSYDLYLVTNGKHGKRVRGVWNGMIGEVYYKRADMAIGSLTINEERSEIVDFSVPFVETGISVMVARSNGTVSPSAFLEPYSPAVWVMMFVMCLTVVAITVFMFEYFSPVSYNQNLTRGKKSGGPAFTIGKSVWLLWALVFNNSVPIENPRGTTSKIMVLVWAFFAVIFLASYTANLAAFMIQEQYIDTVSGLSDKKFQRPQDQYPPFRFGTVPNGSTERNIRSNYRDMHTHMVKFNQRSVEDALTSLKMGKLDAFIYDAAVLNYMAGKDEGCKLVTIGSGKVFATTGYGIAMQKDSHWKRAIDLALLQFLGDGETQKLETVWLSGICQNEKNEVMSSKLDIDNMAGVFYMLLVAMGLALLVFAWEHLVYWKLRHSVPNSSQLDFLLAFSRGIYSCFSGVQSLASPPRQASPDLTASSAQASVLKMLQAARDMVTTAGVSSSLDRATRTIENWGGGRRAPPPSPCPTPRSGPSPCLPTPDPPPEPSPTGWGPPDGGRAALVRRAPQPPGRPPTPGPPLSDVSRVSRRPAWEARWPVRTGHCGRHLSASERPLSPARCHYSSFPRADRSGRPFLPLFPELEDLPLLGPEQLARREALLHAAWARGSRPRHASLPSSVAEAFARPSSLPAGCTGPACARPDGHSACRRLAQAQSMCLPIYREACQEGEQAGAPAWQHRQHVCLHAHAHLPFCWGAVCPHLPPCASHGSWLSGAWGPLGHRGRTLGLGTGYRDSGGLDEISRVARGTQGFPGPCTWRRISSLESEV
Method: (§1) Xenopus laevis oocytes were injected with cRNA encoding the NMDA receptor subunits. Two to seven days after injection, two-electrode voltage-clamp recordings were performed. Extracellular solutions were made from a solutions containing (in mM) 90 NaCl, 3 KCl, 10 HEPES, 0.5 BaCl2, 0.01 EDTA (pH 7.4 with NaOH). Voltage and current electrodes were filled with 0.3 M and 3.0 M KCl, respectively.
(§2) Potency was determined by adding increasing concentrations of test compound to saturating concentrations of glutamate (100 μM) and glycine (30 μM), and the response amplitude measured. The response in the presence of each concentration of test compound plus agonists was expressed as a percent of the response in the absence of test compound.

[2] = target: GluN2D-containing NMDA receptors (Homo sapiens, UniProt O15399); assay: Two-electrode voltage-clamp recordings from Xenopus laevis oocytes, GluN2D; conditions: for I10 μM/ICONTROL (mean ± SEM, %) Glu N2D: 10 μM test compound with glutamate 100 μM and glycine 30 μM, Tables 1-5; for I10 μM/ICONTROL (mean ± SEM, %) Glu N2D / maximal potentiation Glu N2D: percent of response without compound; for EC50 / maximal potentiation Glu N2D: Table 1; for EC50: glutamate 100 μM, glycine 30 μM, Hill fit, read-out: EC50 Glu N2D; for maximal potentiation Glu N2D: in brackets after EC50
Chain of GluN2D-containing NMDA receptors (O15399 28-1336, other chains not shown): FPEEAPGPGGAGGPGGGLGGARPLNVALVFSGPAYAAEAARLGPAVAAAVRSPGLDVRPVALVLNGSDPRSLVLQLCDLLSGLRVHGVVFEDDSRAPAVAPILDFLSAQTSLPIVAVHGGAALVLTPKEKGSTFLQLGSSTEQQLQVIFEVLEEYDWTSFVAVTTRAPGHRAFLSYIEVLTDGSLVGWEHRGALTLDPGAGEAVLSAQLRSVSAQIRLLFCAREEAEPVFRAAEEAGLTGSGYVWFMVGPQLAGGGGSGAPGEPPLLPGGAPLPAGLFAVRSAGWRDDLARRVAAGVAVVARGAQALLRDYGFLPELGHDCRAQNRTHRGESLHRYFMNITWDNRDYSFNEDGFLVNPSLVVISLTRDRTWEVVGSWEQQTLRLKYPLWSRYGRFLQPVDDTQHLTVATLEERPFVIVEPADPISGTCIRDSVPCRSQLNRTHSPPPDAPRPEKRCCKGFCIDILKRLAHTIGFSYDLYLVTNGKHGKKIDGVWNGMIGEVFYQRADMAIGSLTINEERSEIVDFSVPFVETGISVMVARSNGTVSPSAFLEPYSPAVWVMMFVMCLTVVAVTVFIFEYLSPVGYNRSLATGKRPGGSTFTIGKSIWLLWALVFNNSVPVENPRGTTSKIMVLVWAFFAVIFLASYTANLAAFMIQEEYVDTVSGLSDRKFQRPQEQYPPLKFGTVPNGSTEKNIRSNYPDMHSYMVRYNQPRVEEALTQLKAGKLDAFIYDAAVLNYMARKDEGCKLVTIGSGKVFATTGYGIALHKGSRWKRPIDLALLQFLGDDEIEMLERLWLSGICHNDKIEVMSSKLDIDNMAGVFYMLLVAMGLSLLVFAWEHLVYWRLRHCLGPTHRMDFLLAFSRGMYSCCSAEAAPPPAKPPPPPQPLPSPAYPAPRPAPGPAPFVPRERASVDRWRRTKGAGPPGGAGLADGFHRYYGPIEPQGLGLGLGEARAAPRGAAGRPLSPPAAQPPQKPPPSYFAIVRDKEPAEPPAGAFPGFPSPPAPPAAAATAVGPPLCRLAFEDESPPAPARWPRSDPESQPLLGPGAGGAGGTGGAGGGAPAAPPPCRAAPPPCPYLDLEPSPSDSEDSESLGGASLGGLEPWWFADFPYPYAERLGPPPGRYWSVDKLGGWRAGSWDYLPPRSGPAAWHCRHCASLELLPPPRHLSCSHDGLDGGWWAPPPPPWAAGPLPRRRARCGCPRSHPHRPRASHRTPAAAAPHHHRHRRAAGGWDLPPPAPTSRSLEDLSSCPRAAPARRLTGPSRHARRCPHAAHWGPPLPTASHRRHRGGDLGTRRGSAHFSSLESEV
Method: as §1, §2

[3] = target: GluN2B-containing NMDA receptors (Homo sapiens, UniProt Q13224); assay: Two-electrode voltage-clamp recordings from Xenopus laevis oocytes, GluN2B; conditions: for I10 μM/ICONTROL (mean ± SEM, %) Glu N2B: 10 μM test compound with glutamate 100 μM and glycine 30 μM, Tables 1-5; for I10 μM/ICONTROL (mean ± SEM, %) Glu N2B / maximal potentiation Glu N2B: percent of response without compound; for EC50 / maximal potentiation Glu N2B: Table 1; for EC50: glutamate 100 μM, glycine 30 μM, Hill fit, read-out: EC50 Glu N2B; for maximal potentiation Glu N2B: in brackets after EC50
Chain of GluN2B-containing NMDA receptors (Q13224 27-1484, other chains not shown): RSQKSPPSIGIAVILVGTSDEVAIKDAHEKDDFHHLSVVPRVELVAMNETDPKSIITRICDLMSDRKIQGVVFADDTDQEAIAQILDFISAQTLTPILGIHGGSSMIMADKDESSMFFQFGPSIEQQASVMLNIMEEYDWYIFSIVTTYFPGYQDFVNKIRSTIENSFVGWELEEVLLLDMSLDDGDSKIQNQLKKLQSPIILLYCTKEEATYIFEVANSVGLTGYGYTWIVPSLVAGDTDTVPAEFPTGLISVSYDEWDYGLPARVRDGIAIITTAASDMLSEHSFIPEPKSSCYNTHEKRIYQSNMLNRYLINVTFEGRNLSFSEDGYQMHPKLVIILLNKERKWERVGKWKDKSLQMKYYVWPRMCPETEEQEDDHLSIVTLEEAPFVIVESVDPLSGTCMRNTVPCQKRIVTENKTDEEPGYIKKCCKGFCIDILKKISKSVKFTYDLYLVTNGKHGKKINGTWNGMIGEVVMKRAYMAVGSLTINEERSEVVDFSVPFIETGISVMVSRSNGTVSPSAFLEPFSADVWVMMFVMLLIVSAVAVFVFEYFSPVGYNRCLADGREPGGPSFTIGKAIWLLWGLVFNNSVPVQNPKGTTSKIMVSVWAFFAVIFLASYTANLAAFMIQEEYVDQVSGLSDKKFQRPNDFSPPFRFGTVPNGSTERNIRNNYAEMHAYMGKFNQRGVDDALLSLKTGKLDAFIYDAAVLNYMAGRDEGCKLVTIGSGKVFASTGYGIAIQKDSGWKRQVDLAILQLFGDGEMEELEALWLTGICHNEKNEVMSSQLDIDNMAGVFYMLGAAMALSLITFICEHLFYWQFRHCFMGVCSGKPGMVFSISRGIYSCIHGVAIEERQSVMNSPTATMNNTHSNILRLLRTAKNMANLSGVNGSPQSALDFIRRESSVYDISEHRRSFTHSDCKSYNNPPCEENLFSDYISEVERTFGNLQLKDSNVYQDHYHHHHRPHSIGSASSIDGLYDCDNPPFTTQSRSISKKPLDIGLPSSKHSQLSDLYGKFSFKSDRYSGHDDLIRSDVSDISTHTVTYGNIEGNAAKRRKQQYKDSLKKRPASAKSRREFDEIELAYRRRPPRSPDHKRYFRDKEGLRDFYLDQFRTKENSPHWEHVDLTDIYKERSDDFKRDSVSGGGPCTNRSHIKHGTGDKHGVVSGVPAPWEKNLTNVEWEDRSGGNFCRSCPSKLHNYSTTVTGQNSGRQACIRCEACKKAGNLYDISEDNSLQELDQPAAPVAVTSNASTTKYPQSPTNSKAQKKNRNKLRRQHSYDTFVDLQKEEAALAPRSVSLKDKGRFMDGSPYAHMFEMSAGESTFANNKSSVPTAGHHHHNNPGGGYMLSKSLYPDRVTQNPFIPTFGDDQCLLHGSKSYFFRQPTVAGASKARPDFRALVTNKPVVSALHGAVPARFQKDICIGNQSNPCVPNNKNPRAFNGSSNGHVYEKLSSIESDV
Method: as §1, §2

SMILES | I10 μM/ICONTROL (mean ± SEM, %) Glu N2C [1] | I10 μM/ICONTROL (mean ± SEM, %) Glu N2D [2] | I10 μM/ICONTROL (mean ± SEM, %) Glu N2B [3] | EC50 [1] | maximal potentiation Glu N2C [1] | EC50 [2] | maximal potentiation Glu N2D [2] | EC50 [3] | maximal potentiation Glu N2B [3]
COc1ccc(C(=O)Cn2cnc3sc4c(c3c2=O)CCCC4)c(OC)c1 [2,4-OMe] | 94 ± 1.4% | 90 ± 0.7% | 95 ± 1.8% |  |  |  |  |  | 
Cc1sc2ncn(CC(=O)N3CCCC3)c(=O)c2c1-c1ccccc1C(F)(F)F [2-CF3—Ph / Me] | 95 ± 2.1% | 94 ± 1.4% | 93 ± 2.0% |  |  |  |  |  | 
Cc1sc2ncn(CC(=O)N3CCCC3)c(=O)c2c1-c1ccc2c(c1)CCC2 [3,4-(CH2)3—Ph / Me] | 185 ± 11.4% | 165 ± 3.4% | 176 ± 6.2% | 26 µM | 475% | 48 µM | 580% | 11.5 µM | 275%
Cc1sc2ncn(CC(=O)N3CCCC3)c(=O)c2c1-c1ccc(Br)c(Br)c1 [3,4-Br—Ph / Me] | 281 ± 17.7% | 292 ± 13.7% | 188 ± 9.3% | 13 µM | 561% | 30 µM | 1205% | 5.2 µM | 223%
Cc1ccc(-c2c(C)sc3ncn(CC(=O)N4CCCC4)c(=O)c23)cc1C [3,4-Me—Ph / Me] |  |  |  | 27 µM | 267% | 18 µM | 229% | 7.9 µM | 192%
Cc1sc2ncn(CC(=O)N3CCCC3)c(=O)c2c1-c1cc(Br)cc(Br)c1 [3,5-Br—Ph / Me] | 195 ± 6.9% | 230 ± 13.5% | 156 ± 5.2% | 2.2 µM | 195% | 3.86 µM | 202% | 1.08 µM | 143%
Cc1sc2ncn(CC(=O)N3CCCC3)c(=O)c2c1-c1cc(C(F)(F)F)cc(C(F)(F)F)c1 [3,5-CF3—Ph / Me] | 115 ± 5.5% | 103 ± 1.1% | 101 ± 4.5% |  |  |  |  |  | 
Cc1sc2ncn(CC(=O)N3CCCC3)c(=O)c2c1-c1cc(F)cc(F)c1 [3,5-F—Ph / Me] | 114 ± 0.9% | 116 ± 4.4% | 107 ± 2.7% | 132 µM | 458% | 204 µM | 748% | 96 µM | 229%
Cc1sc2ncn(CC(=O)N3CCCC3)c(=O)c2c1-c1cc(I)cc(I)c1 [3,5-I—Ph / Me] | 167 ± 9.6% | 151 ± 6.3% | 152 ± 8.8% | 35 µM | 493% | 32 µM | 432% | 20 µM | 259%
Cc1sc2ncn(CC(=O)N3CCCC3)c(=O)c2c1-c1cccc(-n2cncn2)c1 [3-1,2,4 triazolyl-Ph / Me] | 113 ± 5.8% | 108 ± 6.2% | 110 ± 2.6% | 44 µM | 308% | 108 µM | 239% | 293 µM | 402%
Cc1sc2ncn(CC(=O)N3CCCC3)c(=O)c2c1-c1cccc(Br)c1 [3-Br—Ph / Me] | 241 ± 19.7% | 239 ± 11.5% | 172 ± 8.7% | 17 µM | 568% | 21 µM | 687% | 11 µM | 266%
Cc1sc2ncn(CC(=O)N3CCCC3)c(=O)c2c1-c1cccc(C(F)(F)F)c1 [3-CF3—Ph / Me] | 368 ± 29.0% | 480 ± 74.3% | 211 ± 11.3% | 13 µM | 748% | 25 µM | 1735% | 6 µM | 282%
Cc1sc2ncn(CC(=O)N3CCCC3)c(=O)c2c1-c1cccc(C#N)c1 [3-CN—Ph / Me] | 190 ± 4.2% | 177 ± 6.2% | 147 ± 4.1% |  |  |  |  |  | 
Cc1sc2ncn(CC(=O)N3CCCC3)c(=O)c2c1-c1cccc(Cl)c1 [3-Cl—Ph / Me] | 211 ± 14.7% | 190 ± 6.3% | 170 ± 4.7% | 36 µM | 877% | 37 µM | 830% | 16 µM | 301%
Cc1sc2ncn(CC(=O)N3CCCC3)c(=O)c2c1-c1cccc(I)c1 [3-I—Ph / Me] | 401 ± 36.4% | 364 ± 31.6% | 246 ± 14.9% | 7.6 µM | 622% | 15 µM | 1068% | 3.7 µM | 249%
Cc1sc2ncn(CC(=O)N3CCCC3)c(=O)c2c1-c1cccc(N=[N+]=[N-])c1 [3-N3—Ph / Me] | 264 ± 17.7% | 175 ± 9.4% | 176 ± 8.1% | 10 µM | 613% | 10 µM | 592% | 23.8 µM | 295%
Cc1sc2ncn(CC(=O)N3CCCC3)c(=O)c2c1-c1cccc(-n2ccnc2)c1 [3-N-imidazolyl-Ph / Me] | 112 ± 1.3% | 99 ± 3.4% | 120 ± 5.8% | 191 µM | 453% | 80 µM | 207% | 102 µM | 261%
Cc1sc2ncn(CC(=O)N3CCCC3)c(=O)c2c1-c1cccc([N+](=O)[O-])c1 [3-NO2—Ph / Me] | 321 ± 13.6% | 253 ± 13.3% | 185 ± 4.8% | 36 µM | 1483% | 60 µM | 1860% | 12 µM | 304%
Cc1sc2ncn(CC(=O)N3CCCC3)c(=O)c2c1-c1ccc(OCc2ccccc2)cc1 [4-BnO—Ph / Me] | 135 ± 5.4% | 131 ± 3.7% | 118 ± 5.2% | 35 µM | 392% | 25 µM | 291% | 11 µM | 147%
